Measured values reported in patent US10336762B2 (priority 2017, dated 2019).

Assays:
TNFα = assay: cells; format: cell-based, human; conditions: Homo sapiens, Monocyte, LPS-stimulated human monocytes, TNFα content; read-out: EC50 TNF
IRAK4 enzyme = IRAK4 enzyme (Homo sapiens (Human), UniProt Q9NWZ3); assay: biochemical; format: biochemical; conditions: IRAK4 enzyme, TR-FRET, 500 μM ATP
Sequence of IRAK4 enzyme (Q9NWZ3 whole entry): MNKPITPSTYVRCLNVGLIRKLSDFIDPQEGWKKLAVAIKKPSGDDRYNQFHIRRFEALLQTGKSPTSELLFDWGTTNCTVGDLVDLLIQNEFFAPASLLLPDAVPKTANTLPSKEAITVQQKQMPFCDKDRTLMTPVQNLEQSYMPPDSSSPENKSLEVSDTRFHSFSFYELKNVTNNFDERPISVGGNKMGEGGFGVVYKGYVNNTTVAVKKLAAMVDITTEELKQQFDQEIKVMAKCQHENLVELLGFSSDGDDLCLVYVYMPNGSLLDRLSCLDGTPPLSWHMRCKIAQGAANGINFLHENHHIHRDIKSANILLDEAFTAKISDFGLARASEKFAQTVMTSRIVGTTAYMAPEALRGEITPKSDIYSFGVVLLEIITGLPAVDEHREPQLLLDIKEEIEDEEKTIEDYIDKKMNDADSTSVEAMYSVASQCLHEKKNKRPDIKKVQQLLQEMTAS

SMILES | EC50 (TNFα) [µM] | IC50 (IRAK4 enzyme) [µM]
CC(C)(O)[C@H](F)CNC(=O)c1cnc(-c2ccc3cc(C#N)cnn23)cc1Nc1nc(Cc2ccccc2)cs1 [Example 337, (R)-4-((4-benzylthiazol-2-yl)amino)-6-(3-cyanopyrrolo[1,2-b]pyridazin-7-yl)-N-(2-fluoro-3-hydroxy-3-methylbutyl)nicotinamide] | 0.073 | 0.005
CNC(=O)c1csc(Nc2cc(-c3ccc4cc(C#N)cnn34)ncc2C(=O)NC[C@@H](F)C(C)(C)O)n1 [Example 338, (R)-2-((2-(3-cyanopyrrolo[1,2-b]pyridazin-7-yl)-5-((2-fluoro-3-hydroxy-3-methylbutyl)carbamoyl)pyridin-4-yl)amino)-N-methylthiazole-4-carboxamide] | 0.304 | 0.003
COC(=O)[C@H](C)NC(=O)c1cnc(-c2ccc3cc(C#N)cnn23)cc1NC12CCC(O)(CC1)CC2 [Example 339, methyl (6-(3-cyano-pyrrolo[1,2-b]pyridazin-7-yl)-4-((4-hydroxy-bicyclo[2.2.2]octan-1-yl)amino)nicotinoyl)-L-alaninate] | 0.264 | 0.001
COC(=O)[C@@H](C)NC(=O)c1cnc(-c2ccc3cc(C#N)cnn23)cc1NC12CCC(O)(CC1)CC2 [Example 340, methyl (6-(3-cyano-pyrrolo[1,2-b]pyridazin-7-yl)-4-((4-hydroxy-bicyclo[2.2.2]octan-1-yl)amino)nicotinoyl)-D-alaninate] | 0.139 | 0.001
COC(=O)CNC(=O)c1cnc(-c2ccc3cc(C#N)cnn23)cc1NC12CCC(O)(CC1)CC2 [Example 341, methyl (6-(3-cyano-pyrrolo[1,2-b]pyridazin-7-yl)-4-((4-hydroxy-bicyclo[2.2.2]octan-1-yl)amino)nicotinoyl) glycinate] | 0.016 | < 0.001
CC(C)(CCNC(=O)c1cnc(-c2ccc3cc(C#N)cnn23)cc1NC12CCC(O)(CC1)CC2)NS(C)(=O)=O [Example 342, 6-(3-cyanopyrrolo[1,2-b]pyridazin-7-yl)-4-((4-hydroxybicyclo[2.2.2]octan-1-yl)amino)-N-(3-methyl-3-(methyl-sulfonamido)butyl) nicotinamide] | 0.083 | 0.001
COC(=O)NC(C)(C)CCNC(=O)c1cnc(-c2ccc3cc(C#N)cnn23)cc1NC12CCC(O)(CC1)CC2 [Example 343, Methyl (4-(6-(3-cyanopyrrolo[1,2-b]pyridazin-7-yl)-4-((4-hydroxybicyclo[2.2.2]octan-1-yl)amino)nicotinamido)-2-methylbutan-2-yl)carbamate] | 0.038 | 0.001
CC(=O)NC(C)(C)CCNC(=O)c1cnc(-c2ccc3cc(C#N)cnn23)cc1NC12CCC(O)(CC1)CC2 [Example 344, N-(3-acetamido-3-methylbutyl)-6-(3-cyanopyrrolo[1,2-b]pyridazin-7-yl)-4-((4-hydroxybicyclo[2.2.2]octan-1-yl)amino) nicotinamide] | 0.048 | 0.002
CC(C)(N)CCNC(=O)c1cnc(-c2ccc3cc(C#N)cnn23)cc1NC12CCC(O)(CC1)CC2 [Example 345, N-(3-amino-3-methylbutyl)-6-(3-cyanopyrrolo[1,2-b]pyridazin-7-yl)-4-((4-hydroxybicyclo[2.2.2]octan-1-yl)amino)nicotinamide] | 0.116 | 0.001
N#Cc1cnn2c(-c3cc(NC45CCC(O)(CC4)CC5)c(C(=O)NCCC4CCCO4)cn3)ccc2c1 (stereo not drawn) [Example 346, 6-(3-cyanopyrrolo[1,2-b]pyridazin-7-yl)-4-((4-hydroxybicyclo[2.2.2]octan-1-yl)amino)-N-(2-(tetrahydrofuran-2-yl)ethyl)nicotinamide] | 0.018 | 0.001
CC(C)(CCNC(=O)c1cnc(-c2ccc3cc(C#N)cnn23)cc1NC12CCC(O)(CC1)CC2)NC(=O)OC(C)(C)C [Example 347, tert-butyl (4-(6-(3-cyanopyrrolo[1,2-b]pyridazin-7-yl)-4-((4-hydroxybicyclo[2.2.2]octan-1-yl)amino)nicotinamido)-2-methyl-butan-2-yl)carbamate] | 0.045 | 0.002
N#CCNC(=O)c1cnc(-c2ccc3cc(C#N)cnn23)cc1NC12CCC(O)(CC1)CC2 [Example 348, N-(cyanomethyl)-6-(3-cyanopyrrolo[1,2-b]pyridazin-7-yl)-4-((4-hydroxybicyclo[2.2.2]octan-1-yl)amino) nicotinamide] | 0.019 | < 0.001
CC(C)(O)[C@H](F)CNC(=O)c1cnc(-c2ccc3cc(C#N)cnn23)cc1Nc1ccc(C(=O)N2CCC2)cc1 [Example 349, (R)-4-((4-(azetidine-1-carbonyl)phenyl)amino)-6-(3-cyanopyrrolo[1,2-b]pyridazin-7-yl)-N-(2-fluoro-3-hydroxy-3-methylbutyl)nicotinamide] | 0.077 | 0.001
CNC(=O)c1ccc(Nc2cc(-c3ccc4cc(C#N)cnn34)ncc2C(=O)NC[C@@H](F)C(C)(C)O)cc1 [Example 350, (R)-6-(3-cyanopyrrolo[1,2-b]pyridazin-7-yl)-N-(2-fluoro-3-hydroxy-3-methylbutyl)-4-((4-(methylcarbamoyl)phenyl)amino)nicotinamide] | 0.012 | < 0.001
CNC(=O)O[C@H]1C[C@@H](Nc2cc(-c3ccc4cc(C#N)cnn34)ncc2C(=O)NC[C@@H](F)C(C)(C)O)C1 [Example 351, (1S,3S)-3-((2-(3-cyanopyrrolo[1,2-b]pyridazin-7-yl)-5-(((R)-2-fluoro-3-hydroxy-3-methylbutyl)carbamoyl)pyridin-4-yl)amino)cyclobutyl methylcarbamate] | 0.12 | 0.002
N#CCCNC(=O)c1cnc(-c2ccc3cc(C#N)cnn23)cc1NC12CCC(O)(CC1)CC2 [Example 352, N-(2-cyanoethyl)-6-(3-cyanopyrrolo[1,2-b]pyridazin-7-yl)-4-((4-hydroxybicyclo[2.2.2]octan-1-yl)amino) nicotinamide] | 0.076 | 0.001
CC(C)(F)[C@H](F)CNC(=O)c1cnc(-c2ccc3cc(C#N)cnn23)cc1NC12CCC(O)(CC1)CC2 [Example 353, (R)-6-(3-cyanopyrrolo[1,2-b]pyridazin-7-yl)-N-(2,3-difluoro-3-methylbutyl)-4-((4-hydroxybicyclo[2.2.2]octan-1-yl)amino) nicotinamide] | 0.016 | < 0.001
COC(C)(C)[C@H](F)CNC(=O)c1cnc(-c2ccc3cc(C#N)cnn23)cc1NC12CCC(O)(CC1)CC2 [Example 354, (R)-6-(3-cyanopyrrolo[1,2-b]pyridazin-7-yl)-N-(2-fluoro-3-methoxy-3-methylbutyl)-4-((4-hydroxybicyclo[2.2.2]octan-1-yl)amino) nicotinamide] | 0.019 | < 0.001
CC(C)(O)CCNC(=O)c1cnc(-c2ccc3cc(C#N)cnn23)cc1NC12CCC(O)(CC1)CC2 [Example 355, 6-(3-cyanopyrrolo[1,2-b]pyridazin-7-yl)-N-(3-hydroxy-3-methylbutyl)-4-((4-hydroxy-bicyclo[2.2.2]octan-1-yl)amino)nicotinamide] | 0.023 | < 0.001
CNC(=O)O[C@H]1C[C@@](C)(Nc2cc(-c3ccc4cc(C#N)cnn34)ncc2C(=O)NC[C@@H](F)C(C)(C)O)C1 [Example 356] | 0.8 | 0.006
CC(C)(C)NC(=O)c1cnc(-c2ccc3cc(C#N)cnn23)cc1NC12CCC(O)(CC1)CC2 [Example 357, N-(tert-butyl)-6-(3-cyano-pyrrolo[1,2-b]pyridazin-7-yl)-4-((4-hydroxy-bicyclo[2.2.2]octan-1-yl)amino)nicotinamide] | 0.413 | 0.009
[2H]C([2H])([2H])NC(=O)c1cnc(-c2ccc3cc(C#N)cnn23)cc1NC12CCC(O)(CC1)CC2 [Example 358, 6-(3-cyanopyrrolo[1,2-b]pyridazin-7-yl)-4-((4-hydroxybicyclo[2.2.2]octan-1-yl)amino)-N-(methyl-d3)nicotinamide] | 0.122 | 0.003
CC(C)(O)[C@H](F)CNC(=O)c1cnc(-c2ccc3cc(C#N)cnn23)cc1Nc1nc(-c2ccc(Oc3ccccc3)cc2)cs1 [Example 359, (R)-6-(3-cyanopyrrolo[1,2-b]pyridazin-7-yl)-N-(2-fluoro-3-hydroxy-3-methylbutyl)-4-((4-(4-phenoxyphenyl)thiazol-2-yl)amino)nicotinamide] | > 10 | 0.614
CC(C)(C)c1cc(Nc2cc(-c3ccc4cc(C#N)cnn34)ncc2C(=O)NC[C@@H](F)C(C)(C)O)on1 [Example 360, (R)-4-((3-(tert-butyl)isoxazol-5-yl)amino)-6-(3-cyanopyrrolo[1,2-b]pyridazin-7-yl)-N-(2-fluoro-3-hydroxy-3-methyl-butyl)nicotinamide] | > 10 | 0.002
CNC(=O)c1cnc(-c2ccc3cc(C#N)cnn23)cc1NC12CCC(O)(CC1)CC2 [Example 361, 6-(3-cyanopyrrolo[1,2-b]pyridazin-7-yl)-4-((4-hydroxybicyclo[2.2.2]octan-1-yl)amino)-N-methylnicotinamide] | 0.05 | 0.001
CNC(=O)[C@H]1CC[C@@H](Nc2cc(-c3ccc4cc(C#N)cnn34)ncc2C(=O)NC[C@@H](F)C(C)(C)O)CC1 [Example 362, 6-(3-cyanopyrrolo[1,2-b]pyridazin-7-yl)-N-((R)-2-fluoro-3-hydroxy-3-methylbutyl)-4-(((1s,4S)-4-(methylcarbamoyl)cyclo-hexyl)amino)nicotinamide] | 1.43 | 0.009
CC(C)(O)[C@H](F)CNC(=O)c1cnc(-c2ccc3cc(C#N)cnn23)cc1Nc1nc(-c2ccccc2)cs1 [Example 363, (R)-6-(3-cyanopyrrolo[1,2-b]pyridazin-7-yl)-N-(2-fluoro-3-hydroxy-3-methylbutyl)-4-((4-phenyl-thiazol-2-yl)amino) nicotinamide] | 0.328 | 0.005
